Experimental data as given in US12077503B2, “Substituted cyclic amides and their use as herbicides” (FMC CORPORATION, priority 2015, dated 2024).

Assays:
Type in all cases: in vivo
corn (Zea mays) [1] = assay: Test G Post-Emergence Protocol; details: Zea mays, post-emergence, 312 h, read-out: Corn damage rating
Procedure, shortened: (§1)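 Foliar application was made 8 days after sowing, using an aqueous spray of the active in acetone/water (50:50) with 0.5% Tween 20, at doses of 15.625, 62.5 or 250 g/ha. Injury was assessed 13 days later, where 100 meant the plant was fully damaged.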

[2] = test system: velvetleaf (Abutilon theophrasti); assay: Test G Post-Emergence Protocol; details: Abutilon theophrasti, post-emergence, 312 h, read-out: Velvetleaf damage rating
Procedure, shortened: as §1

[3] = test system: ivy-leaved morning glory (Ipomoea hederacea); assay: Test G Post-Emergence Protocol; details: Ipomoea, post-emergence, 312 h, read-out: Morningglory, Ivy-leaved damage rating
Procedure, shortened: as §1

[4] = test system: barnyardgrass (Echinochloa crus-galli); assay: Test G Post-Emergence Protocol; details: Echinochloa crus-galli, post-emergence, 312 h, read-out: Barnyardgrass damage rating
Procedure, shortened: as §1

[5] = test system: giant foxtail (Setaria faberi); assay: Test G Post-Emergence Protocol; details: Setaria faberi, post-emergence, 312 h, read-out: Foxtail, Giant damage rating
Procedure, shortened: as §1

[6] = test system: redroot pigweed (Amaranthus retroflexus); assay: Test G Post-Emergence Protocol; details: Amaranthus retroflexus, post-emergence, 312 h, read-out: Pigweed, Redroot damage rating
Procedure, shortened: as §1

corn (Zea mays) [7] = assay: Test G Pre-Emergence Protocol; details: Zea mays, pre-emergence, 312 h, evaluated after 13 days
Procedure, shortened: (§2)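 Herbicidal effect was rated 13 days post-application on a scale where 100 equals total damage. Spraying took place the day after sowing, using 15.625, 62.5 or 250 g/ha of compound in a 50:50 acetone/water solution with 0.5% Tween 20.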

[8] = test system: velvetleaf (Abutilon theophrasti); assay: Test G Pre-Emergence Protocol; details: Abutilon theophrasti, pre-emergence, 312 h, evaluated after 13 days
Procedure, shortened: as §2

[9] = test system: ivy-leaved morning glory (Ipomoea hederacea); assay: Test G Pre-Emergence Protocol; details: Ipomoea, pre-emergence, 312 h, evaluated after 13 days
Procedure, shortened: as §2

[10] = test system: barnyardgrass (Echinochloa crus-galli); assay: Test G Pre-Emergence Protocol; details: Echinochloa crus-galli, pre-emergence, 312 h, evaluated after 13 days
Procedure, shortened: as §2

[11] = test system: giant foxtail (Setaria faberi); assay: Test G Pre-Emergence Protocol; details: Setaria faberi, pre-emergence, 312 h, evaluated after 13 days
Procedure, shortened: as §2

[12] = test system: redroot pigweed (Amaranthus retroflexus); assay: Test G Pre-Emergence Protocol; details: Amaranthus retroflexus, pre-emergence, 312 h, evaluated after 13 days
Procedure, shortened: as §2

[13] = 15.625 g ai/ha, evaluated after 13 days (100=total damage to plant; 0=no damage to plant)
[14] = 62.5 g ai/ha, evaluated after 13 days, 100=total damage to plant, 0=no damage to plant
[15] = 250 g ai/ha, evaluated after 13 days, 100=total damage to plant, 0=no damage to plant

CN1CC(c2cc(C#N)cc(OC(F)(F)F)c2)C(C(=O)Nc2cccc(F)c2F)C1=O (stereo not drawn) [Compound 1694]
0%: plant injury at 15.625 g/ha (corn (Zea mays) [1]; [13]) | plant injury at 62.5 g/ha (corn (Zea mays) [1]; [14]) | plant injury at 250 g/ha (corn (Zea mays) [1]; [15]) | pest or weed control at 15.625 g/ha [2, 13] | pest or weed control at 62.5 g/ha [2, 14] | pest or weed control at 250 g/ha [2, 15] | pest or weed control at 15.625 g/ha [3, 13] | pest or weed control at 62.5 g/ha [3, 14] | pest or weed control at 250 g/ha [3, 15] | pest or weed control at 15.625 g/ha [4, 13] | pest or weed control at 62.5 g/ha [4, 14] | pest or weed control at 250 g/ha [4, 15] | pest or weed control at 15.625 g/ha [5, 13] | pest or weed control at 62.5 g/ha [5, 14] | pest or weed control at 250 g/ha [5, 15] | pest or weed control at 15.625 g/ha [6, 13] | pest or weed control at 62.5 g/ha [6, 14] | pest or weed control at 250 g/ha [6, 15] | plant injury at 15.625 g/ha (corn (Zea mays) [7]; 15.625 g ai/ha, read-out: Corn damage rating (100=total damage to plant; 0=no damage to plant)) | plant injury at 62.5 g/ha (corn (Zea mays) [7]; 62.5 g ai/ha, 100=total damage to plant, 0=no damage to plant, read-out: Corn damage rating) | plant injury at 250 g/ha (corn (Zea mays) [7]; 250 g ai/ha, read-out: Corn damage rating (100=total damage to plant; 0=no damage to plant)) | pest or weed control at 15.625 g/ha ([8]; 15.625 g ai/ha, read-out: Velvetleaf damage rating (100=total damage to plant; 0=no damage to plant)) | pest or weed control at 62.5 g/ha ([8]; 62.5 g ai/ha, 100=total damage to plant, 0=no damage to plant, read-out: Velvetleaf damage rating) | pest or weed control at 250 g/ha ([8]; 250 g ai/ha, read-out: Velvetleaf damage rating (100=total damage to plant; 0=no damage to plant)) | pest or weed control at 15.625 g/ha ([9]; 15.625 g ai/ha, read-out: Morningglory, Ivy-leaved damage rating (100=total damage to plant; 0=no damage to plant)) | pest or weed control at 62.5 g/ha ([9]; 62.5 g ai/ha, 100=total damage to plant, 0=no damage to plant, read-out: Morningglory, Ivy-leaved damage rating) | pest or weed control at 250 g/ha ([9]; 250 g ai/ha, read-out: Morningglory, Ivy-leaved damage rating (100=total damage to plant; 0=no damage to plant)) | pest or weed control at 15.625 g/ha ([10]; 15.625 g ai/ha, read-out: Barnyardgrass damage rating (100=total damage to plant; 0=no damage to plant)) | pest or weed control at 62.5 g/ha ([10]; 62.5 g ai/ha, 100=total damage to plant, 0=no damage to plant, read-out: Barnyardgrass damage rating) | pest or weed control at 250 g/ha ([10]; 250 g ai/ha, read-out: Barnyardgrass damage rating (100=total damage to plant; 0=no damage to plant)) | pest or weed control at 15.625 g/ha ([11]; 15.625 g ai/ha, read-out: Foxtail, Giant damage rating (100=total damage to plant; 0=no damage to plant)) | pest or weed control at 62.5 g/ha ([11]; 62.5 g ai/ha, 100=total damage to plant, 0=no damage to plant, read-out: Foxtail, Giant damage rating) | pest or weed control at 250 g/ha ([11]; 250 g ai/ha, read-out: Foxtail, Giant damage rating (100=total damage to plant; 0=no damage to plant)) | pest or weed control at 15.625 g/ha ([12]; 15.625 g ai/ha, read-out: Pigweed, Redroot damage rating (100=total damage to plant; 0=no damage to plant)) | pest or weed control at 62.5 g/ha ([12]; 62.5 g ai/ha, 100=total damage to plant, 0=no damage to plant, read-out: Pigweed, Redroot damage rating) | pest or weed control at 250 g/ha ([12]; 250 g ai/ha, read-out: Pigweed, Redroot damage rating (100=total damage to plant; 0=no damage to plant))
